Peptide text beside a SMILES is read from it.
Legend:
[1] = test system: J774.2 murine macrophages; type: cell-based, mouse
Method: To measure cell metabolic activity, thiazolyl blue tetrazolium bromide (MTT, Sigma-Aldrich) was added to cells at 0.4 mg/mL in complete medium for 4 hours at 37° C. The plates were then aspirated and 100 µL of DMSO added for 10-15 minutes at room temperature on a plate shaker at low speed setting. The plates were run on an Epoch plate reader using absorbance at 560 nm corrected for background at 670 nm. Flow cytometry analysis for iNOS expression followed the methods described above.

J774.2 mouse macrophages = assay: In Vitro Cholesterol Efflux Assay (Example 1); type: cell-based; settings: two- and threefold higher concentrations of LXR
[2] = Dialysis LXR agonist release study; type: physicochemical; settings: non-encapsulated LXR agonist, PBS, within the first hour
Method: LXR-40% ApoA1 PA (1 mM with respect to PA) was dissolved in PBS. […] To each dialysis cup 0.1 mL of sample was added with one cup used for each time-point to be measured. All samples were dialyzed against 4 mL of PBS at 37° C. The total contents of one dialysis cup were isolated and kept at 4° C. until measurement at each time point. […] For LC-MS, a 5 to 95% acetonitrile (0.1% formic acid) gradient was run over 30 min with mobile phase containing 0.1% NH40H. A total ion chromatogram was obtained in MS mode and integrated using Mass Hunter Agilent software. The peak area corresponding to [M-H]− for GW3965 was recorded for each sample in negative ion mode and normalized according to the volume of sample present. Percent encapsulation was determined as follows:
[formula] where NPA is the normalized peak area corresponding to LXR agonist (normalized for solution volume).

[3] = Solubility of LXR agonist without PA; type: physicochemical; settings: deionized water or PBS
LDLR KO mice = assay: Atherosclerosis treatment study; type: in vivo, mouse; settings: both sexes
Method: Mouse model of atherosclerosis: To study atherosclerosis, the LDLR KO mouse was used. LDLR KO mice are fed a high fat “western” diet (Teklad TD.88137) starting at 4 weeks of age. This diet consists of 20% fat, 0.2% cholesterol, and 34% high sucrose. LDLR KO mice fed this diet typically develop severe hypercholesterolemia (>800 mg/dL) and hypertriglyceridemia (>300 mg/dL) after only 2 weeks. By 12 weeks on the high fat diet, atherosclerotic lesions are detected in the aortic root and aortic arch on cryosections stained with Oil Red O (Sigma). Atherosclerosis was quantified in the aortic root as a percentage of the aortic root by taking the atherosclerotic area divided by the total aortic root area. Measurements were made with ImageJ software. All protocols for the animal model and procedures in this manuscript were approved by Northwestern University's Institutional Animal Care and Use Committee.
(§1) Blood samples were collected at the end of the treatment study for toxicology analysis. Mice were euthanized three days after their 16th treatment.
(§2) Tissue processing and imaging: Mice were sacrificed and euthanized under inhaled isoflurane anesthesia by diaphragm disruption and exsanguination. Phlebotomy was performed through direct right ventricular cardiac puncture using a 1 mL syringe and 25 G needle. Perfusion was performed through left ventricular cardiac puncture with 10 mL PBS and 10 mL 10% sucrose solution. The lungs, liver, spleen, kidney, aortic root, aortic arch, and descending aorta were harvested and stored in 10% sucrose for 20 minutes. Organs and vessels were then flash-frozen in Optimal Cutting Temperature embedding medium 4583 (Tissue-Tek®) with liquid nitrogen. Frozen specimens were stored at −80° C. and cryosectioned at […]. Confocal microscopy was performed on a Nikon AIR microscope. Two sets of images were acquired with a 10× Plan Fluor NA 0.3 objective. PAs were identified through quantification of the Alexa Fluor® 546 conjugated dye with 561 nm excitation and a 600/50 nm emission filter.
Images were acquired with spectral detection and spectrally unmixed to accurately separate green autofluorescence from the red Alexa Fluor® 546 signal. Brightfield and fluorescent microscopy were performed using a Zeiss Axio Imager.A2 microscope with AxioVision software (release 4.8.2, 06-2010). All confocal and fluorescent sections were mounted with ProGold Diamond mounting media (Sigma). Slides were stained with Oil Red O to image and quantify atherosclerosis under brightfield microscopy. The elastic laminae were identified using the green fluorescent protein (GFP) filter with an exposure time of 3500 ms under 5× magnification. Nanofibers were identified in the aortic root by presence of Alexa Fluor® 546 on the Cy3 filter under 5-10× magnification, and in the internal organs under 20× magnification. Fluorescent pixel quantification in the aortic root and within organs was performed with ImageJ software.
(§3) Statistics: The effect of treatments and sex on atherosclerosis progression in mice was analyzed using one- or two-factor analysis of variance (ANOVA) followed by a post-hoc student's t-test. The toxicological effects of treatments were also analyzed using two-factor ANOVA and a post-hoc student's t-test. Toxicological effects of treatments on liver proteins AST, ALT, and ALP were further analyzed using ordinal logistic regression models of likelihood ratio tests, followed by a post-hoc Wald test

[4] = Treatment study serum chemistry (toxicology analysis); type: in vivo, mouse; settings: for Alanine Aminotransferase (ALT) / Alkaline phosphatase / Aspartate Aminotransferase (AST) / Bicarbonate and CO2 / Bilirubin - Conjugated / Bilirubin - Unconjugated / Blood Urea Nitrogen / Cholesterol / Creatine / Creatine Kinase / Globulin / Glucose / Potassium / Sodium / Total Bilirubin / Total Protein: group median, end of 8-week treatment
Method: as §1, §2, §3

human recombinant MMP2 = target: T1, human recombinant MMP2 (Homo sapiens, UniProt P08253); assay: MMP-Ac2-26 PA cleavage assay; type: biochemical; settings: 40 nM MMP2, 24 hours, 37° C.
T1 construct: purchased R&D systems
T1 sequence (P08253 110-660): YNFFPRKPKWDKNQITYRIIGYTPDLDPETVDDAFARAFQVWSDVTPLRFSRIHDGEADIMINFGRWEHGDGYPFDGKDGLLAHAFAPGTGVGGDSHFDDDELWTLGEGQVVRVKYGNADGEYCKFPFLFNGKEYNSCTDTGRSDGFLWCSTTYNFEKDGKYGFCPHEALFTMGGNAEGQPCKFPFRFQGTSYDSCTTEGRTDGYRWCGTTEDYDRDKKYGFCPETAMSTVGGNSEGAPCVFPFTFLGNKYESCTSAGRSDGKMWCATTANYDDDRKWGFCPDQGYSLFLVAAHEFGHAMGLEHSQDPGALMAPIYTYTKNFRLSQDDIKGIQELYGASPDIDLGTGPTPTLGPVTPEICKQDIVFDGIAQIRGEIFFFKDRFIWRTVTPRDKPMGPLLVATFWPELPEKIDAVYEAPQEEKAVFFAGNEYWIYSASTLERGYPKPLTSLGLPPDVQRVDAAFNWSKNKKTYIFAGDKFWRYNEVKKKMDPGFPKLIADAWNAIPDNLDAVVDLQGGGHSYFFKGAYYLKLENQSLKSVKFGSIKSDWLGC
Method: ROS-Ac2-26 and MMP-Ac2-26 PA cleavage assays: To examine ROS-mediated cleavage, 3-morpholinosydnonimine hydrochloride (SIN-1, Sigma-Aldrich or Abcam) was used. ROS-Ac2-26 PAs were reconstituted to 0.5 mM in phosphate buffer and treated with 100 μM SIN-1 for 24 hours at 37° C. For MMP2/9-mediated cleavage, human recombinant MMP2 (R&D systems, carrier-free) was used, activated with freshly prepared 1 mMp-aminophenylmercuric acetate (APMA, Sigma-Aldrich) for one hour at 37° C. The APMA disrupts the cysteine-zinc bond in MMP2 responsible for enzyme latency by liberation of the sulfhydryl group. 10% MMP-Ac2-26 PA co-assemblies were prepared at 0.5 mM in a cleavage buffer containing 50 mM tricine, 50 mM NaCl, 50 μM ZnCl2, and 10 mM CaCl2) at pH 7.4, and treated with 40 nM human recombinant MMP2 for 24 hours at 37° C. At the end of each time point, the samples were stored at −20° C., effectively stopping the cleavage reactions. Samples were analyzed at room temperature, 0.04-0.3 mg/mL with 0.1% NH4OH using a ThermoFisher Q Exactive HIF-X (ThermoFisher, Bremen, Germany) mass spectrometer coupled with a Waters Acquity H-class liquid chromatograph system. […] All measurements were recorded at a resolution setting of 120,000. […] Injection volume for all samples was […]. Data was analyzed on Xcalibur (ThermoFisher, Breman, Germany).

CC[C@H](C)[C@H](NC(=O)[C@H](Cc1ccccc1)NC(=O)[C@H](Cc1c[nH]c2ccccc12)NC(=O)[C@H](C)NC(=O)[C@H](CCC(N)=O)NC(=O)[C@H](CCCCN)NC(=O)[C@H](CC(C)C)NC(=O)[C@H](Cc1ccccc1)NC(=O)[C@H](CCC(=O)O)NC(=O)[C@H](CO)NC(=O)[C@@H](NC(=O)[C@H](CCSC)NC(=O)[C@H](C)NC(C)=O)C(C)C)C(=O)N[C@@H](CCC(=O)O)C(=O)N[C@@H](CC(N)=O)C(=O)N[C@@H](CCC(=O)O)C(=O)N[C@@H](CCC(=O)O)C(=O)N[C@@H](CCC(N)=O)C(=O)N[C@@H](CCC(=O)O)C(=O)N[C@@H](Cc1ccc(O)cc1)C(=O)N[C@H](C(=O)N[C@@H](CCC(N)=O)C(=O)N[C@H](C(=O)N[C@H](C(=O)N[C@@H](CCCCN)C(=O)O)C(C)C)[C@@H](C)O)C(C)C [Ac2-26] (Ac-AMVSEFLKQAWFIENEEQEYVQTVK-OH; N-terminus and C-terminus assumed)
cellular metabolism (MTT) in comparison to the stimulated control [1]: did not significantly affect cellular metabolism

Cl.O=C(O)Cc1cccc(OCCCN(Cc2cccc(C(F)(F)F)c2Cl)CC(c2ccccc2)c2ccccc2)c1 [LXR, GW3965]
LXR effects upon macrophage efflux (J774.2 mouse macrophages): no significant increases
release across the dialysis membrane [2]: up to 85%
solubility [3]: insoluble
reversal of atherosclerosis from baseline levels (LDLR KO mice): approximately 5%
atherosclerosis progression in comparison to the PBS control (LDLR KO mice; twice per week over eight weeks, percent of atherosclerosis in the aortic root): significantly decreased
Alanine Aminotransferase (ALT) ([4]; All mice): 40 U/L
Alkaline phosphatase ([4]; All mice): 65.5 U/L
Aspartate Aminotransferase (AST) ([4]; All mice): 135 U/L
Bicarbonate and CO2 ([4]; All mice): 12 mmol/L
Bilirubin - Conjugated ([4]; All mice): 0.05 mg/dL
Bilirubin - Unconjugated ([4]; All mice): 0.3 mg/dL
Blood Urea Nitrogen ([4]; All mice): 23 mg/dL
Cholesterol ([4]; All mice): 2000.5 mg/dL
Creatine ([4]; All mice): 0 U/L
Creatine Kinase ([4]; All mice): 137.5 U/L
Globulin ([4]; All mice): 2.7 g/dL
Glucose ([4]; All mice): 237 mg/dL
Potassium ([4]; All mice): 5.2 mmol/L
Sodium ([4]; All mice): 139.5 mmol/L
Total Bilirubin ([4]; All mice): 0.4 mg/dL
Total Protein ([4]; All mice): 5.45 g/dL
Alanine Aminotransferase (ALT) ([4]; Females): 33 U/L
Alkaline phosphatase ([4]; Females): 73 U/L
Aspartate Aminotransferase (AST) ([4]; Females): 142 U/L
Bicarbonate and CO2 ([4]; Females): 10 mmol/L
Bilirubin - Conjugated ([4]; Females): 0 mg/dL
Bilirubin - Unconjugated ([4]; Females): 0.5 mg/dL
Blood Urea Nitrogen ([4]; Females): 21.5 mg/dL
Cholesterol ([4]; Females): 2029 mg/dL
Creatine ([4]; Females): 0 U/L
Creatine Kinase ([4]; Females): 136 U/L
Globulin ([4]; Females): 2.3 g/dL
Glucose ([4]; Females): 203 mg/dL
Potassium ([4]; Females): 4.6 mmol/L
Sodium ([4]; Females): 140 mmol/L
Total Bilirubin ([4]; Females): 0.6 mg/dL
Total Protein ([4]; Females): 5.4 g/dL
Alanine Aminotransferase (ALT) ([4]; Males): 47 U/L
Alkaline phosphatase ([4]; Males): 41 U/L
Aspartate Aminotransferase (AST) ([4]; Males): 102 U/L
Bicarbonate and CO2 ([4]; Males): 14 mmol/L
Bilirubin - Conjugated ([4]; Males): 0.1 mg/dL
Bilirubin - Unconjugated ([4]; Males): 0.2 mg/dL
Blood Urea Nitrogen ([4]; Males): 24 mg/dL
Cholesterol ([4]; Males): 1972 mg/dL
Creatine ([4]; Males): 0 U/L
Creatine Kinase ([4]; Males): 138 U/L
Globulin ([4]; Males): 2.8 g/dL
Glucose ([4]; Males): 259 mg/dL
Potassium ([4]; Males): 5.2 mmol/L
Sodium ([4]; Males): 139 mmol/L
Total Bilirubin ([4]; Males): 0.3 mg/dL
Total Protein ([4]; Males): 5.5 g/dL
AST levels in comparison to the PBS control ([4]; female mice): no significant differences
aspartate aminotransferase (AST) in the blood in comparison to PBS ([4]; male mice): significantly elevated levels of aspartate aminotransferase (AST)

C16-V2A2 (SEQ ID NO: 8)-E2-GGGPQGIWGQGK (SEQ ID NO: 1)-AMVSEFLKQAWFIENEEQEYVQTVK (SEQ ID NO: 7)-NH2 (C16-VVAAEEGGGPQGIWGQGKAMVSEFLKQAWFIENEEQEYVQTVK-NH2) [MMP-Ac2-26 PA]
Ac2-26 release from PA nanofibers (human recombinant MMP2): released Ac2-26

From patent publication US12214076B2, “Drug delivery vehicles for atherosclerosis nanomedicine” (Northwestern University, priority 2019, dated 2025)
